According to publication PMC8710297, “Identification of potent SENP1 inhibitors that inactivate SENP1/JAK2/STAT signaling pathway and overcome platinum drug resistance in ovarian cancer” (Clinical and Translational Medicine, 2021):

Target: T1, SENP1 (Homo sapiens, UniProt Q9P0U3)
T1 sequence (Q9P0U3 1-644): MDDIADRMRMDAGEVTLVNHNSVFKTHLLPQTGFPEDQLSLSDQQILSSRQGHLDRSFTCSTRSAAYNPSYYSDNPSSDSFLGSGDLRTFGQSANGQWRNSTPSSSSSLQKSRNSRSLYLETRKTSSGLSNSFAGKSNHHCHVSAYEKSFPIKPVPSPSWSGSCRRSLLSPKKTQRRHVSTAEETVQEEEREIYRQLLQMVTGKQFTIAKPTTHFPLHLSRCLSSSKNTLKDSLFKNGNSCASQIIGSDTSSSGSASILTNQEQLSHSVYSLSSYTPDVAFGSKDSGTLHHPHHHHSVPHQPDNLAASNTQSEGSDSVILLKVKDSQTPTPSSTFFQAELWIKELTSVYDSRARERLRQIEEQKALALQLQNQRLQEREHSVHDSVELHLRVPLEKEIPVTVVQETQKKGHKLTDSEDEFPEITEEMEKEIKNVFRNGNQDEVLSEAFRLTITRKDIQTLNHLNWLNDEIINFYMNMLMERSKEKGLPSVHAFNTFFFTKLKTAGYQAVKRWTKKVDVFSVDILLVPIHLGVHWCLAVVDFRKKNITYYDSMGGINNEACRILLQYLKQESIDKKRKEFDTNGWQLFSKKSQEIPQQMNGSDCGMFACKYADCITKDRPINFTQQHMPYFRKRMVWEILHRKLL
Assay: Cellular thermal shift assay
Type: cell-based
Parameters: endogenous in cells; host or cells: IGROV1 CR cells
Conditions: IGROV1 CR cells, 4 h, higher temperatures
Experimental: FIGURE 2 UA directly interacts with Sentrin‐specific protease 1 (SENP1). (A) Cellular thermal shift assay to examine the interaction of UA with SENP1. IGROV1 CR cells pretreated with MG132 (10 μM, 1 h) were incubated with DMSO or UA for 4 h before being shifted to indicated temperatures. SENP1 stability was analyzed by using Western blot against SENP1 antibody. Right panel, quantification of non‐denatured SENP1 fraction shown in the left panel. (B) Cell‐free thermal shift assay to examine interactions of UA with SENP1. Purified SENP1 proteins were incubated with DMSO or UA for 4 h before being shifted to the indicated temperatures. SENP1 stability was analyzed by using Western blot against SENP1 antibody. Right panel, quantification of non‐denatured SENP1 fraction shown in the left panel. […] Stability of SENP1(C603A) was analyzed by using Western blot against SENP1 antibody. […] Left; Ultra‐high performance liquid‐chromatography‐MS/MS analyses of associated UA in indicated samples, right; quantification of data shown in left (the binding affinity of UA with SENP1‐C603A was normalized as 1). […]
FIGURE 3 Identification of UAMMC9 from UA derivatives. […] Stability of SENP1(C603A) was analyzed by using Western blot against SENP1 antibody. […]
The qu anti ficatio n of immunohistochemical sta in ing wa s scored blindly at lea st by two […]

thermal stabilization of SENP1 in cells	SMILES
stabilized	C[C@H]1[C@H](C)CC[C@]2(C(=O)O)CC[C@]3(C)C(=CC[C@@H]4[C@@]5(C)CC[C@H](O)C(C)(C)[C@@H]5CC[C@]43C)[C@H]12 [UA, ursolic acid, reference compound]
directly interacted with SENP1	C[C@H]1[C@H](C)CC[C@]2(C(=O)NCC(=O)N(C)CCO)CC[C@]3(C)C(=CC[C@@H]4[C@@]5(C)CC[C@H](O)C(C)(C)[C@@H]5CC[C@]43C)[C@H]12 [UAMMC9]
